Earlier results, collected in patent US20070293674A1, “Novel Saperconazole Crystalline Forms and Related Processes, Pharmaceutical Compositions and Methods” (TRANSFORM PHARMACEUTICALS, INC., priority 2004, published 2007).

How the values were obtained:
[1] = free base
[2] = piperazine of itraconazole

solubility in water [1]: only very sparingly soluble in water
pKa value for the piperazine [2]: 3.7
SMILES: CCC(C)n1ncn(-c2ccc(N3CCN(c4ccc(OC[C@H]5CO[C@](Cn6cncn6)(c6ccc(Cl)cc6Cl)O5)cc4)CC3)cc2)c1=O (mixture of isomers) [itraconazole, 4-[4-[4-[4-[[2-(2,4-dichlorophenyl)-2-(1H-1,2,4-triazol-1-ylmethyl)-1,3-dioxolan-4-yl]methoxy]phenyl]-1-piperazinyl]phenyl]-2,4-dihydro-2-(1-methylpropyl)-3H-1,2,4-triazol-3-one]
